The values that follow come from patent US7632811B2, “Analogs of parathyroid hormone” (Societe de Conseils de Recherches et D'Applications …, priority 1995, dated 2009).

Non-standard residues stand in square brackets, D forms with d. Residues, ends and D or L forms follow the SMILES beside them. Aib = CC(C)(N)C(=O)O

What is called Kd is the concentration at which binding is half-saturated.

The target in the assay is T1, PTH receptor present on SaOS-2 (human osteosarcoma cells) (Homo sapiens, UniProt Q03431).
T1 construct: host or cells: SaOS-2 human osteosarcoma cells (intact, confluent monolayers)
T1 sequence (Q03431 27-593): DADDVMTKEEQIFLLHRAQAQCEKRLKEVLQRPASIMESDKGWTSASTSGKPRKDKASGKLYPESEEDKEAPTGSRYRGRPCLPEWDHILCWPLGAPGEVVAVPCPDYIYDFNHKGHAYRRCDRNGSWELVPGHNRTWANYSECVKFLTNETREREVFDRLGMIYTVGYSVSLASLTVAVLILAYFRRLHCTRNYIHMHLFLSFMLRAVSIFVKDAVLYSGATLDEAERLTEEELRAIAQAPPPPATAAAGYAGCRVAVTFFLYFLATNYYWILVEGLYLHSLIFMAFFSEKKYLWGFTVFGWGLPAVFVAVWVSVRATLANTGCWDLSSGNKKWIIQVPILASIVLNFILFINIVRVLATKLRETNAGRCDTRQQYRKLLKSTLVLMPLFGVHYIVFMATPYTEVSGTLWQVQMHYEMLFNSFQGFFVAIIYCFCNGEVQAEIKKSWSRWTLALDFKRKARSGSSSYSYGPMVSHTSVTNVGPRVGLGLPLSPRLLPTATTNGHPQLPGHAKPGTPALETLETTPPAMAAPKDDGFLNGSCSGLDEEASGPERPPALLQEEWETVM
Put plainly: Binding to PTH receptor on SaOS-2 cells (competition with mono-125I-[Nle8,18,Tyr34(3-125I)]bPTH(1-34)NH2). Conditions: Table I, 2 hrs at room temperature, read-out: Kd (half maximal inhibition of binding of mono-125I-[Nle8,18, Tyr34(3-125I)]bPTH(1-34)NH2). The procedure:
A. Binding to PTH Receptor
The peptides of the invention were tested for their ability to bind to the PTH receptor present on SaOS-2 (human osteosarcoma cells). SaOS-2 cells (American Type Culture Collection, Rockville, Md.; ATCC #HTB 85) were maintained in RPMI 1640 medium (Sigma, St. Louis, Mo.) supplemented with 10% fetal bovine serum (FBS) and 2 mM glutamine at 37EC in a humidified atmosphere of 5% CO2 in air. The medium was changed every three or four days, and the cells were subcultured every week by trypsinization.
SaOS-2 cells were maintained for four days until they had reached confluence. The medium was replaced with 5% FBS in RPMI 1640 medium and incubated for 2 hrs at room temperature with 10×10^4 cpm mono-^125I-[Nle^8,18, Tyr^34(3-^125I)]bPTH(1-34)NH2 in the presence of a competing peptides of the invention at various concentrations between 10^−11 M to 10^−4 M. The cells were washed four times with ice-cold PBS and lysed with 0.1 M NaOH, and the radioactivity associated with the cells was counted in a scintillation counter. Synthesis of mono-^125I-[Nle^8,18, Tyr^34(3-^125I)]bPTH(1-34)NH2 was carried out as described in Goldman, M. E., et al., Endocrinol., 123:1468 (1988).
The binding assay was conducted with various peptides of the invention, and the Kd value (half maximal inhibition of binding of mono-^125I-[Nle^8,18, Tyr^34(3-^125I)]bPTH(1-34)NH2) for each peptide was calculated.
Regarding `CC[C@H](C)[C@H](NC(=O)[C@H](CCC(=O)O)NC(=O)C(C)(C)NC(=O)[C@@H](NC(=O)[C@@H](N)CO)C(C)C)C(=O)N[C@@H](CCC(N)=O)C(=O)N[C@@H](CC(C)C)C(=O)N[C@@H](CCSC)C(=O)N[C@@H](Cc1c[nH]cn1)C(=O)N[C@@H](CC(N)=O)C(=O)N[C@@H](CC(C)C)C(=O)NCC(=O)N[C@@H](CCCCN)C(=O)N[C@@H](Cc1c[nH]cn1)C(=O)N[C@@H](CC(C)C)C(=O)N[C@@H](CC(N)=O)C(=O)N[C@@H](CO)C(=O)N[C@@H](CCSC)C(=O)N[C@@H](CCC(=O)O)C(=O)N[C@@H](CCCNC(=N)N)C(=O)N[C@H](C(=O)N[C@@H](CCC(=O)O)C(=O)N[C@@H](Cc1c[nH]c2ccccc12)C(=O)N[C@@H](CC(C)C)C(=O)N[C@@H](CCCNC(=N)N)C(=O)N[C@@H](CCCCN)C(=O)N[C@@H](CCCCN)C(=O)N[C@@H](CC(C)C)C(=O)N[C@@H](CCC(N)=O)C(=O)N[C@@H](CC(=O)O)C(=O)N[C@H](C(=O)N[C@@H](Cc1c[nH]cn1)C(=O)N[C@@H](CC(N)=O)C(=O)N[C@@H](Cc1ccccc1)C(N)=O)C(C)C)C(C)C` [[Aib^3]hPTH(1-34)NH2] (H-SV[Aib]EIQLMHNLGKHLNSMERVEWLRKKLQDVHNF-NH2), the Kd was found to be 4 nM.

With `CC[C@H](C)[C@H](NC(=O)[C@H](CCC(=O)O)NC(=O)[C@H](CO)NC(=O)[C@@H](NC(=O)[C@@H](N)CO)C(C)C)C(=O)N[C@@H](CCC(N)=O)C(=O)N[C@@H](CC(C)C)C(=O)N[C@@H](CCSC)C(=O)N[C@@H](Cc1c[nH]cn1)C(=O)N[C@@H](CC(N)=O)C(=O)N[C@@H](CC(C)C)C(=O)NC(C)(C)C(=O)N[C@@H](CCCCN)C(=O)N[C@@H](Cc1c[nH]cn1)C(=O)N[C@@H](CC(C)C)C(=O)N[C@@H](CC(N)=O)C(=O)N[C@@H](CO)C(=O)N[C@@H](CCSC)C(=O)N[C@@H](CCC(=O)O)C(=O)N[C@@H](CCCNC(=N)N)C(=O)N[C@H](C(=O)N[C@@H](CCC(=O)O)C(=O)N[C@@H](Cc1c[nH]c2ccccc12)C(=O)N[C@@H](CC(C)C)C(=O)N[C@@H](CCCNC(=N)N)C(=O)N[C@@H](CCCCN)C(=O)N[C@@H](CCCCN)C(=O)N[C@@H](CC(C)C)C(=O)N[C@@H](CCC(N)=O)C(=O)N[C@@H](CC(=O)O)C(=O)N[C@H](C(=O)N[C@@H](Cc1c[nH]cn1)C(=O)N[C@@H](CC(N)=O)C(=O)N[C@@H](Cc1ccccc1)C(N)=O)C(C)C)C(C)C` [[Aib^12]hPTH(1-34)NH2] (H-SVSEIQLMHNL[Aib]KHLNSMERVEWLRKKLQDVHNF-NH2), the equilibrium dissociation constant (Kd) is 5 nM.

In the case of `CC[C@H](C)[C@H](NC(=O)[C@H](CCC(=O)O)NC(=O)[C@H](CO)NC(=O)[C@@H](NC(=O)[C@@H](N)CO)C(C)C)C(=O)N[C@@H](CCC(N)=O)C(=O)N[C@@H](CC(C)C)C(=O)N[C@@H](CCSC)C(=O)N[C@@H](Cc1c[nH]cn1)C(=O)N[C@@H](CC(N)=O)C(=O)N[C@@H](CC(C)C)C(=O)NCC(=O)N[C@@H](CCCCN)C(=O)N[C@@H](Cc1c[nH]cn1)C(=O)N[C@@H](CC(C)C)C(=O)NC(C)(C)C(=O)N[C@@H](CO)C(=O)N[C@@H](CCSC)C(=O)NC(C)(C)C(=O)N[C@@H](CCCNC(=N)N)C(=O)N[C@H](C(=O)N[C@@H](CCC(=O)O)C(=O)N[C@@H](Cc1c[nH]c2ccccc12)C(=O)N[C@@H](CC(C)C)C(=O)N[C@@H](CCCNC(=N)N)C(=O)N[C@@H](CCCCN)C(=O)N[C@@H](CCCCN)C(=O)N[C@@H](CC(C)C)C(=O)N[C@@H](CCC(N)=O)C(=O)N[C@@H](CC(=O)O)C(=O)N[C@H](C(=O)N[C@@H](Cc1c[nH]cn1)C(=O)N[C@@H](CC(N)=O)C(=O)N[C@@H](Cc1ccccc1)C(N)=O)C(C)C)C(C)C` [[Aib^16,19]hPTH(1-34)NH2] (H-SVSEIQLMHNLGKHL[Aib]SM[Aib]RVEWLRKKLQDVHNF-NH2), the equilibrium dissociation constant (Kd) was 4 nM.

`CC[C@H](C)[C@H](NC(=O)[C@H](CCC(=O)O)NC(=O)[C@H](CO)NC(=O)[C@@H](NC(=O)[C@@H](N)CO)C(C)C)C(=O)N[C@@H](CCC(N)=O)C(=O)N[C@@H](CC(C)C)C(=O)N[C@@H](CCSC)C(=O)N[C@@H](Cc1c[nH]cn1)C(=O)N[C@@H](CC(N)=O)C(=O)N[C@@H](CC(C)C)C(=O)NCC(=O)N[C@@H](CCCCN)C(=O)N[C@@H](Cc1c[nH]cn1)C(=O)N[C@@H](CC(C)C)C(=O)NC(C)(C)C(=O)N[C@@H](CO)C(=O)N[C@@H](CCSC)C(=O)N[C@@H](CCC(=O)O)C(=O)N[C@@H](CCCNC(=N)N)C(=O)N[C@H](C(=O)N[C@@H](CCC(=O)O)C(=O)N[C@@H](Cc1c[nH]c2ccccc12)C(=O)N[C@@H](CC(C)C)C(=O)N[C@@H](CCCNC(=N)N)C(=O)N[C@@H](CCCCN)C(=O)N[C@@H](CCCCN)C(=O)N[C@@H](CC(C)C)C(=O)N[C@@H](CCC(N)=O)C(=O)N[C@@H](CC(=O)O)C(=O)N[C@H](C(=O)N[C@@H](Cc1c[nH]cn1)C(=O)N[C@@H](CC(N)=O)C(=O)N[C@@H](Cc1ccccc1)C(N)=O)C(C)C)C(C)C` [[Aib^16]hPTH(1-34)NH2] (H-SVSEIQLMHNLGKHL[Aib]SMERVEWLRKKLQDVHNF-NH2): the Kd was determined as 4 nM.

As for `CC[C@H](C)[C@H](NC(=O)[C@H](CCC(=O)O)NC(=O)[C@H](CO)NC(=O)[C@@H](NC(=O)[C@@H](N)CO)C(C)C)C(=O)N[C@@H](CCC(N)=O)C(=O)N[C@@H](CC(C)C)C(=O)N[C@@H](CCSC)C(=O)N[C@@H](Cc1c[nH]cn1)C(=O)N[C@@H](CC(N)=O)C(=O)N[C@@H](CC(C)C)C(=O)NCC(=O)N[C@@H](CCCCN)C(=O)N[C@@H](Cc1c[nH]cn1)C(=O)N[C@@H](CC(C)C)C(=O)N[C@@H](CC(N)=O)C(=O)N[C@@H](CO)C(=O)N[C@@H](CCSC)C(=O)NC(C)(C)C(=O)N[C@@H](CCCNC(=N)N)C(=O)N[C@H](C(=O)N[C@@H](CCC(=O)O)C(=O)N[C@@H](Cc1c[nH]c2ccccc12)C(=O)N[C@@H](CC(C)C)C(=O)N[C@@H](CCCNC(=N)N)C(=O)N[C@@H](CCCCN)C(=O)N[C@@H](CCCCN)C(=O)N[C@@H](CC(C)C)C(=O)N[C@@H](CCC(N)=O)C(=O)N[C@@H](CC(=O)O)C(=O)N[C@H](C(=O)N[C@@H](Cc1c[nH]cn1)C(=O)N[C@@H](CC(N)=O)C(=O)N[C@@H](Cc1ccccc1)C(N)=O)C(C)C)C(C)C` [[Aib^19]hPTH(1-34)NH2] (H-SVSEIQLMHNLGKHLNSM[Aib]RVEWLRKKLQDVHNF-NH2), the Kd came to 5 nM.

With `CC[C@H](C)[C@H](NC(=O)[C@H](CCC(=O)O)NC(=O)[C@H](CO)NC(=O)[C@@H](NC(=O)[C@@H](N)CO)C(C)C)C(=O)N[C@@H](CCC(N)=O)C(=O)N[C@@H](CC(C)C)C(=O)N[C@@H](CCSC)C(=O)N[C@@H](Cc1c[nH]cn1)C(=O)N[C@@H](CC(N)=O)C(=O)N[C@@H](CC(C)C)C(=O)NCC(=O)N[C@@H](CCCCN)C(=O)N[C@@H](Cc1c[nH]cn1)C(=O)N[C@@H](CC(C)C)C(=O)N[C@@H](CC(N)=O)C(=O)N[C@@H](CO)C(=O)N[C@@H](CCSC)C(=O)N[C@@H](CCC(=O)O)C(=O)N[C@@H](CCCNC(=N)N)C(=O)N[C@H](C(=O)N[C@@H](CCC(=O)O)C(=O)N[C@@H](Cc1c[nH]c2ccccc12)C(=O)N[C@@H](CC(C)C)C(=O)N[C@@H](CCCNC(=N)N)C(=O)N[C@@H](CCCCN)C(=O)N[C@@H](CCCCN)C(=O)N[C@@H](CC(C)C)C(=O)N[C@@H](CCC(N)=O)C(=O)N[C@@H](CC(=O)O)C(=O)N[C@H](C(=O)N[C@@H](Cc1c[nH]cn1)C(=O)N[C@@H](CC(N)=O)C(=O)NC(C)(C)C(N)=O)C(C)C)C(C)C` [[Aib^34]hPTH(1-34)NH2], the Kd was found to be 7 nM.
